Reference: publication PMC10614160 (Journal of medicinal chemistry, 2023)

Tested on: OVSAHO cells
Experiment: cell viability of OVSAHO cells
Format: cell-based
Settings: for 24 h cytotoxicity against OVSAHO: drug alone; for effect of combining the drug with 1 on inhibiting OVSAHO cells: compared with 1 alone

Molecule | effect of combining the drug with 1 on inhibiting OVSAHO cells (combined with 1 (20 μM), 24 h) | also measured
COc1cccc2c1C(=O)c1c(O)c3c(c(O)c1C2=O)C[C@@](O)(C(=O)CO)C[C@@H]3O[C@H]1C[C@H](N)[C@H](O)[C@H](C)O1 [doxorubicin] |  | cell viability of OVSAHO treated with 1 combined with the drug (combined with 1 (20 μM), 24 h): ~20%; 24 h cytotoxicity against OVSAHO (1.25 μM): around 75%; 24 h cytotoxicity against OVSAHO (2.5 μM): around 75%; 24 h cytotoxicity against OVSAHO (5 μM): around 75%
N.N.[Cl][Pt][Cl] [cisplatin] | slightly enhances | 
Cn1ncnc1[C@H]1c2n[nH]c(=O)c3cc(F)cc(c23)N[C@@H]1c1ccc(F)cc1 [talazoparib] | No inhibition enhancement | 
COC(=O)[C@@]1(O)C[C@H]2O[C@]1(C)n1c3ccccc3c3c4c(c5c6ccccc6n2c5c31)C(=O)NC4 [K252A] | slightly enhances | 
O=C(C1CC1)N1CCN(Cn2sc3ccccc3c2=O)CC1 [LOC14] | No inhibition enhancement | 
CC(=O)O[C@H]1C(=O)[C@@]2(C)[C@H]([C@H](OC(=O)c3ccccc3)[C@]3(O)C[C@H](OC(=O)[C@H](O)[C@@H](NC(=O)c4ccccc4)c4ccccc4)C(C)=C1C3(C)C)[C@]1(OC(C)=O)CO[C@@H]1C[C@@H]2O [paclitaxel] | No inhibition enhancement | 
CC(C)(C)c1ccc(S(=O)(=O)/C=C/C#N)cc1 [BAY11–7085] | slightly enhances | 
PACMA31 | No inhibition enhancement | 
CC(C)C[C@H](NC(=O)[C@H](Cc1ccccc1)NC(=O)c1cnccn1)B(O)O [BTZ, bortezomib] | No inhibition enhancement | 
